# Source: publication PMC3467217, “A Potent Class of GPR40 Full Agonists Engages the EnteroInsular Axis to Promote Glucose Control in Rodents” (PLoS ONE, 2012)
# How the values were obtained:
# [1] = tested on: wild type and GPR40 knockout mice; assay: OGTT and GLP-1 secretion in wild type and GPR40 null mice; assay type: in vivo, mouse; details: wild type mice
# Method: (§1) All procedures on animals were approved by the Amgen San Francisco Institutional Animal Care and Use Committee (approved protocols #11–04 and #2007–00106). The Amgen San Francisco vivarium is an AAALAC accredited facility. Animals were housed under a 12-h light, 12-h dark cycle (lights-on 0600 h and lights-off 1800 h) and were allowed ad libidum access to chow and water. The HF/STZ mice were established as previously described. Briefly, C57BL/6j mice (Jackson labs) at 4 weeks of age were fed a high-fat diet (BioServ S1850, 35% fat) for 3-weeks and then injected with 95 mg/kg streptozotocin (Sigma) ip to induce beta cell dysfunction. The animals continued on the same high fat diet for 3–6 additional weeks. Animals were then randomized into treatment groups based on fasting blood glucose and insulin measures. NONcNZO10/LtJ (RCS10) male mice (Jackson labs) were used at 12-weeks of age and randomized for treatment based on fasting glucose levels. For OGTT experiments, drugs were formulated in 1% HPMC, 10% HPbCD, 1% Tween-80 and dosed via oral gavage. Glucose was administered at 2 g/kg 1-hour post drug dose by oral gavage.
# (§2) For all glucose tolerance tests, glucose and insulin measurements were taken from tail vein samples at various time-points. Blood glucose values were measured on an Accu-Chek glucometer (Roche Diagnostics), while insulin levels were determined using an ELISA (Alpco).
# [2] = tested on: HF/STZ mice; assay: Single oral dose without glucose challenge in HF/STZ mice: GLP-1, insulin, glucose, GIP; assay type: in vivo, mouse; details: HF/STZ mice, single oral dose
# Method: The increase in insulin secretion by GPR40 agonists is due to direct stimulation of GPR40 receptors on pancreatic β-cells, but may also be derived from stimulation of the gut peptides GLP-1 and GIP, which subsequently act on the GLP-1 and GIP G protein-coupled receptors found on pancreatic β-cells. […] No glucose challenge was performed in order to isolate the effects of the compounds alone.
# as §1
# [3] = biological target: PPAR delta (Homo sapiens, UniProt Q03181); assay: PPAR-delta luciferase reporter assay; assay type: cell-based; details: concentrations up to 10 µM
# Sequence of PPAR delta (Q03181 whole entry): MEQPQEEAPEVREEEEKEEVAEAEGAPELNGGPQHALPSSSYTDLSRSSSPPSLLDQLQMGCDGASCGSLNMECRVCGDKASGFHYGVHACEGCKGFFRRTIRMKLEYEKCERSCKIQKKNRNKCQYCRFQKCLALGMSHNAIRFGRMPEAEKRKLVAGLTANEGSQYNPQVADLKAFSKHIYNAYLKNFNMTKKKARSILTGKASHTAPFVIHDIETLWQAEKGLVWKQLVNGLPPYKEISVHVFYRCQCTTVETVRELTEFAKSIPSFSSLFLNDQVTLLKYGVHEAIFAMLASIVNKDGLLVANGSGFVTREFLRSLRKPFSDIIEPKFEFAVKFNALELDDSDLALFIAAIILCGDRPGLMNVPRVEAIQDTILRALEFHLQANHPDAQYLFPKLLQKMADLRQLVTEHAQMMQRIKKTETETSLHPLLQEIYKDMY
# [4] = Unbound plasma drug concentration in HF/STZ mice; assay type: in vivo; details: C57BL/6j, mouse, 100 mg/kg oral, 1-hour post drug administration, by MS, read-out: free drug level in plasma
# [5] = biological target: T1, GPR40 (Homo sapiens, UniProt O14842); assay: Aequorin Ca2+ flux assay in CHO cell line stably expressing GPR40; assay type: cell-based; details: CHO-GPR40 stable cell line
# T1 construct: expressed in transfected cells; host or cells: CHO cell line stably expressing GPR40 and aequorin
# T1 sequence (O14842 whole entry): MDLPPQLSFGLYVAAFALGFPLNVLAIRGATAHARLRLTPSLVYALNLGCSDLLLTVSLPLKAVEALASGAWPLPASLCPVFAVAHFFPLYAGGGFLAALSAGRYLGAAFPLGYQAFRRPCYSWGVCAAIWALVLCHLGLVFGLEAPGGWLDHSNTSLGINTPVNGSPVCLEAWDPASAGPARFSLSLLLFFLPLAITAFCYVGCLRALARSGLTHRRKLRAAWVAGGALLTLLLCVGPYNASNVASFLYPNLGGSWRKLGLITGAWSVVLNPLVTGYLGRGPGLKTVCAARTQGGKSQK
# Method: Since GPR40 agonists with greater intrinsic activity may have improved anti-diabetic properties, we focused our efforts to discover potent synthetic full agonists.
# (§3) GPR40 aequorin, plasmid titration, and inositol phosphate assays were performed as described. For aequorin assays, in addition to transient transfection of GPR40 into CHO cells, a CHO cell line stably expressing both GPR40 and aequorin was generated. GLUTag cells were obtained under a license from Dr. Daniel Drucker, University of Toronto. Competition binding experiments were performed using membranes prepared from A9_GPR40 cells. […] Competition binding assays were carried out in 20 mM Hepes pH 7.5, 5 mM MgCl2, 100 mM NaCl and 0.1% (w/v) free fatty acid BSA and bound radioligand was collected on 96-well GF/C filter plates.
# [6] = biological target: T1, GPR40; assay: Competition binding with 3H-AM-1638 on A9_GPR40 membranes; details: unlabelled competitor
# Method: as §3
# [7] = biological target: PPAR gamma (Homo sapiens, UniProt P37231); assay: PPAR-gamma luciferase assay; assay type: cell-based; details: concentrations up to 10 µM
# Sequence of PPAR gamma (P37231 whole entry): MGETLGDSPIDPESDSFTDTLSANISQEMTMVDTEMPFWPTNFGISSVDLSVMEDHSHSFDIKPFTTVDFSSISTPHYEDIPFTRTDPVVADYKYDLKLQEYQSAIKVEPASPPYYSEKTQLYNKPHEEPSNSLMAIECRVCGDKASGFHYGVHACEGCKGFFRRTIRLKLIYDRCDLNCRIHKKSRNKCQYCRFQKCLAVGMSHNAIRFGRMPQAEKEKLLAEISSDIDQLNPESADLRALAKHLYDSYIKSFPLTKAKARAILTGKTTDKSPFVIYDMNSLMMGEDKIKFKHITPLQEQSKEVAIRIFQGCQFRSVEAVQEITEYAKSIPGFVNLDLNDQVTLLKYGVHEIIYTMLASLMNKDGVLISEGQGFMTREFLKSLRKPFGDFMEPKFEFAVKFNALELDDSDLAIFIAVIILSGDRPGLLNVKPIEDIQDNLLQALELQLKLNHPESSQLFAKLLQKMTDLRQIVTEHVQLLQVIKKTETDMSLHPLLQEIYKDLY
# Description: (§4) (A) GPR41 (FFAR3) aequorin assay. GPR41 was force coupled to the calcium signaling pathway by co-transfecting the cells with Gqmyri5. (B) GPR43 (FFAR2) aequorin assay. The short chain fatty acid propionate acts as a natural agonist ligand for GPR41 and GPR43. (C) GPR120 aequorin assay. The unsaturated fatty acids α-LNN and DHA act as natural agonist ligands for GPR120. (D) PPAR-gamma luciferase assay using the thiazolidinedione rosiglitazone as a positive control. […] (TIF) Click here for additional data file.
# [8] = biological target: T2, GPR41 (FFAR3) (Homo sapiens, UniProt O14843); assay: GPR41 aequorin assay; assay type: cell-based; details: up to 10 µM
# T2 construct: expressed in transfected cells
# T2 sequence (O14843 whole entry, species assumed): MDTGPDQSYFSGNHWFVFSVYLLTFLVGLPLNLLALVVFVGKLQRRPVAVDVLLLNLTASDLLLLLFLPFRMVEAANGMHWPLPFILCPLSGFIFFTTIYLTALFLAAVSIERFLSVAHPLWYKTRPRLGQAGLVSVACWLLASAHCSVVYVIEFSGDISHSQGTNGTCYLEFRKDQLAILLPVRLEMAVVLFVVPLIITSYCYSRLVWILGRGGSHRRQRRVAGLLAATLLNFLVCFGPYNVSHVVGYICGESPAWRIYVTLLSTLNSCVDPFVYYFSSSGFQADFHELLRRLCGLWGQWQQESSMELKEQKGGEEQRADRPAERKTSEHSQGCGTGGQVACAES
# Description: as §4
# [9] = rat, mouse, beagle dog and cynomolgus monkey; cited from earlier work
# [10] = biological target: T3, GPR120 (Homo sapiens, UniProt Q5NUL3); assay: GPR120 aequorin assay; assay type: cell-based; details: weak activity
# T3 construct: expressed in transfected cells
# T3 sequence (Q5NUL3 whole entry, species assumed): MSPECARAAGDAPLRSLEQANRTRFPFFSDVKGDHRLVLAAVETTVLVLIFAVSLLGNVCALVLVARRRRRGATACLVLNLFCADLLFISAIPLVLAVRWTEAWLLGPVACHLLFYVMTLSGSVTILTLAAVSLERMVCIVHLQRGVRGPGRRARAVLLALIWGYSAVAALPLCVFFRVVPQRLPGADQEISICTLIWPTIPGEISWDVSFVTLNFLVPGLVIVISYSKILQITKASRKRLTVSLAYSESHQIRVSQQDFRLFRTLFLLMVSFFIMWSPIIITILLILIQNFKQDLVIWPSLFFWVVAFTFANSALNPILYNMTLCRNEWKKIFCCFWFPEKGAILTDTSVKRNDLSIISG
# Description: as §4
# [11] = tested on: human islet cells; assay: Inositol phosphate assay with dispersed human islet cells; assay type: cell-based
# Method: Mouse islets were isolated and tested for stimulation of GSIS as described. Human islets were purchased from Prodo labs or were obtained from the National Institutes of Health and Juvenile Diabetes Research Foundation supported Islet Cell Resource Consortium (http://icr.coh.org). Islet inositol phosphate assays were performed on islets cells that had been dispersed with trypsin. 10,000 islet cells were plated/well of a 96-well plate and were loaded with ^3H-myo-inositol (0.5 µCi/well) in RPMI overnight prior to treatment. The next day, response to different stimuli was tested in HBSS containing 10 mM LiCl and 0.1% HSA (w/v) for 1 hour at 37°C. Accumulated ^3H-inositol phosphate was measured after capture to SPA beads. Islet perifusion experiments were performed on mouse islets loaded into a Brandel Suprafusion system. Twenty islets were size-matched and loaded per perifusion chamber. Islets were perifused in KRBH containing, sequentially, 3 mM glucose, then 3 mM glucose containing 10 µM drug, 16.7 mM glucose containing 10 µM drug and finally returned to 3 mM glucose containing 10 µM drug. Insulin was measured using an insulin ELISA kit (Alpco). Fetal rat intestinal cells were isolated from e19-day old fetuses of pregnant Sprague-Dawley rats. […] GLP-1 and GIP1 secreted into the media was measured using ELISA kits specific for GLP-1 (Linco) or GIP (Millipore).
# [12] = tested on: HF/STZ mice; assay: OGTT in high-fat fed, streptozotocin-treated (HF/STZ) type 2 diabetic mice; assay type: in vivo, mouse; details: OGTT; for Glucose AUC improvement: 1 hour before glucose
# Method: as §1, §2
compound,measurement,setting,value
COc1ccc(F)c(-c2ccc(COc3cccc([C@@H](CC(=O)O)C4CC4)c3)cc2C2=CCCC2(C)C)c1 [AM-1638],improvement in pre- and post-challenge glucose levels,"[1]; OGTT, single oral dose",evident in wild type
same,plasma GLP-1 levels,[1]; single dose 100 mg/kg,elicited an increase
same,GIP secretion,[2],stimulated secretion of GIP
same,blood glucose levels,[2]; no glucose challenge,stabilized blood glucose levels
same,plasma GLP-1 and insulin levels,"[2]; no glucose challenge, compared with AMG 837",markedly greater increase
same,activation of PPAR delta,[3],did not activate
same,concentration at 1 h,[4],363 ± 48 nM
same,EC50,[5],160 ± 10 nM
same,Emax,"[5]; compared to natural free fatty acid ligands, read-out: Emax (efficacy)",100%
same,displacement of 3H-AM-1638,[6],displaced ^3H-AM-1638
same,activation of PPAR gamma,[7],did not activate
same,activation of GPR41 (FFAR3),[8],did not activate
same,pharmacokinetic properties,[9],suitable for oral dosing
same,EC50,[10],~5000 nM
same,"IP production efficacy, fold greater than AMG 837",[11],8–10 ×
same,Glucose AUC improvement,[12]; 10 mg/kg oral,15%
same,Glucose AUC improvement,[12]; 30 mg/kg oral,23%
same,Glucose AUC improvement,[12]; 60 mg/kg oral,35%
same,Glucose AUC improvement,[12]; 100 mg/kg oral,48%
same,"insulin secretion, fold greater than AMG 837",[12]; higher doses,1.5–2.2 fold
